Read-outs that look alike come from different tables or passages of the source.
What was measured:
[1] = In short: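 LC/MS/MS read-out of parent compound remaining; in vitro t1/2 converted to Clint. Incubation: 1 uM compound, 0.5 mg/mL dog/rat/human liver microsomes, NADPH-regenerating system, duplicate sets, time-points 2–65 minutes.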
[2] = system: HIV-1 (IIIB) in MT-4 cells; experiment: MT-4 HIV assay; type: cell-based; settings: Human immunodeficiency virus 1, MT4, 120 h
In short: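 Antiviral activity was read by Cell Titer Glo after a 5-day, 37 °C culture of MT-4 cells pre-infected with a 1:250 dilution of HIV-1 (IIIB). Compounds were tested as threefold dilution series in complete RPMI. Controls were no drug, mock infection and 5 uM AZT.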

[3] = HIV-1 (IIIB), MT-4 cells, 5 days, Cell Titer Glo, read-out: EC50
[4] = human liver microsomes 0.5 mg/mL, 1 uM compound, NADPH
[5] = rat liver microsomes 0.5 mg/mL, 1 uM compound, NADPH

Compound | Human Pred Cl. ([1]; human, microsomes) [L/H/kg] | Rat. Pred. Cl. ([1]; rat, microsomes) [L/H/kg] | EC50 [2, 3] [nM] | Human Pred Cl. [1, 4] [L/H/kg] | Rat. Pred. Cl. [1, 5] [L/H/kg] | EC50 [2] [nM]
COC(=O)N[C@H](C(=O)N[C@@H](Cc1ccc(-c2ccc3nc(N4CC5CCC(C4)N5C4COC4)ccc3n2)cc1)[C@@H](O)CN(Cc1c(F)cc(-c2ccn(C(F)F)n2)cc1F)NC(=O)[C@@H](NC(=O)OC)C(C)(C)C(F)(F)F)C(C)(C)C(F)(F)F [Example 200, Methyl ((5S,8S,9S,14S)-11-(4-(1-(difluoromethyl)-1H-pyrazol-3-yl)-2,6-difluorobenzyl)-16,16,16-trifluoro-9-hydroxy-15,15-dimethyl-8-(4-(6-(8-(oxetan-3-yl)-3,8-diazabicyclo[3.2.1]octan-3-yl)-1,5-naphthyridin-2-yl)benzyl)-3,6,13-trioxo-5-(1,1,1-trifluoro-2-methylpropan-2-yl)-2-oxa-4,7,11,12-tetraazahexadecan-14-yl)carbamate] | <0.11 | 0.19 | 4.36 | – | – | –
COC(=O)N[C@H](C(=O)N[C@@H](Cc1ccc(-c2cnc(N3CC4CCC(C3)N4C3COC3)nc2)cc1)[C@@H](O)CN(Cc1c(F)cc(-c2ncccn2)cc1F)NC(=O)[C@@H](NC(=O)OC)C(C)(C)C(F)(F)F)C(C)(C)C(F)(F)F [Example 201, Methyl ((5S,8S,9S,14S)-11-(2,6-difluoro-4-(pyrimidin-2-yl)benzyl)-16,16,16-trifluoro-9-hydroxy-15,15-dimethyl-8-(4-(2-(8-(oxetan-3-yl)-3,8-diazabicyclo [3.2.1]octan-3-yl)pyrimidin-5-yl)benzyl)-3,6,13-trioxo-5-(1,1,1-trifluoro-2-methylpropan-2-yl)-2-oxa-4,7,11,12-tetraazahexadecan-14-yl)carbamate] | 0.27 | 0.49 | 2.67 | – | – | –
COC(=O)N[C@H](C(=O)N[C@@H](Cc1ccc(-c2ccc(N3CC4CCC(C3)N4C3COC3)nc2)cc1)[C@@H](O)CN(Cc1c(F)cc(-c2ccc(N3CC4CCC(C3)N4C3COC3)nc2)cc1F)NC(=O)[C@@H](NC(=O)OC)C(C)(C)C(F)(F)F)C(C)(C)C(F)(F)F [Example 203, Methyl ((5S,8S,9S,14S)-11-(2,6-difluoro-4-(6-(8-(oxetan-3-yl)-3,8-diazabicyclo [3.2.1]octan-3-yl)pyridin-3-yl)benzyl)-16,16,16-trifluoro-9-hydroxy-15,15-dimethyl-8-(4-(6-(8-(oxetan-3-yl)-3,8-diazabicyclo[3.2.1]octan-3-yl)pyridin-3-yl)benzyl)-3,6,13-trioxo-5-(1,1,1-trifluoro-2-methylpropan-2-yl)-2-oxa-4,7,11,12-tetraazahexadecan-14-yl)carbamate] | 0.32 | 1.09 | 5.02 | – | – | –
COC(=O)N[C@H](C(=O)N[C@@H](Cc1ccc(-c2ccc(N3CC4CCC(C3)N4C3COC3)nc2)cc1)[C@@H](O)CN(Cc1c(F)cc(-c2ccn(C3CC3)n2)cc1F)NC(=O)[C@@H](NC(=O)OC)C(C)(C)C(F)(F)F)C(C)(C)C(F)(F)F [Example 204, Methyl ((5S,8S,9S,14S)-11-(4-(1-cyclopropyl-1H-pyrazol-3-yl)-2,6-difluorobenzyl)-16,16,16-trifluoro-9-hydroxy-15,15-dimethyl-8-(4-(6-(8-(oxetan-3-yl)-3,8-diazabicyclo[3.2.1]octan-3-yl)pyridin-3-yl)benzyl)-3,6,13-trioxo-5-(1,1,1-trifluoro-2-methylpropan-2-yl)-2-oxa-4,7,11,12-tetraazahexadecan-14-yl)carbamate] | 0.19 | 0.48 | 3.18 | – | – | –
COC(=O)N[C@H](C(=O)N[C@@H](Cc1ccc(-c2ccc(N3CC4CCC(C3)N4C3COC3)nc2)cc1)[C@@H](O)CN(Cc1c(F)cc(-c2ccn(C)n2)cc1F)NC(=O)[C@@H](NC(=O)OC)C(C)(C)C)C(C)(C)C [Example 206, Methyl ((5S,8S,9S,14S)-5-(tert-butyl)-11-(2,6-difluoro-4-(1-methyl-1H-pyrazol-3-yl)benzyl)-9-hydroxy-15,15-dimethyl-8-(4-(6-(8-(oxetan-3-yl)-3,8-diazabicyclo [3.2.1]octan-3-yl)pyridin-3-yl)benzyl)-3,6,13-trioxo-2-oxa-4,7,11,12-tetraazahexadecan-14-yl)carbamate] | 0.41 | 1.03 | 3.7 | – | – | –
COC(=O)N[C@H](C(=O)N[C@@H](Cc1ccc(-c2ccc(N3CC4CCC(C3)N4C3COC3)nc2)cc1)[C@@H](O)CN(Cc1c(F)cc(-c2ccn(C)n2)cc1F)NC(=O)[C@@H](NC(=O)OC)C(C)(C)C(F)(F)F)C(C)(C)C(F)(F)F [Example 207, Methyl ((5S,8S,9S,14S)-11-(2,6-difluoro-4-(1-methyl-1H-pyrazol-3-yl)benzyl)-16,16,16-trifluoro-9-hydroxy-15,15-dimethyl-8-(4-(6-(8-(oxetan-3-yl)-3,8-diazabicyclo[3.2.1]octan-3-yl)pyridin-3-yl)benzyl)-3,6,13-trioxo-5-(1,1,1-trifluoro-2-methylpropan-2-yl)-2-oxa-4,7,11,12-tetraazahexadecan-14-yl)carbamate] | 0.25 | 0.92 | 2.46 | – | – | –
COC(=O)N[C@H](C(=O)N[C@@H](Cc1ccc(-c2cnn(C(F)F)c2)cc1)[C@@H](O)CN(Cc1c(F)cc(-c2ccn(C(F)F)n2)cc1F)NC(=O)[C@@H](NC(=O)OC)C(C)(C)C(F)(F)F)C(C)(C)C(F)(F)F [Example 209, Methyl ((5S,8S,9S,14S)-11-(4-(1-(difluoromethyl)-1H-pyrazol-3-yl)-2,6-difluorobenzyl)-8-(4-(1-(difluoromethyl)-1H-pyrazol-4-yl)benzyl)-16,16,16-trifluoro-9-hydroxy-15,15-dimethyl-3,6,13-trioxo-5-(1,1,1-trifluoro-2-methylpropan-2-yl)-2-oxa-4,7,11,12-tetraazahexadecan-14-yl)carbamate] | – | – | – | 1.12 | 1.21 | 3.19
CC(C)([C@H](NC(=O)OC1CC1)C(=O)N[C@@H](Cc1ccc(-c2cnn(C(F)F)c2)cc1)[C@@H](O)CN(Cc1c(F)cc(-c2cnn(C(F)F)c2)cc1F)NC(=O)[C@@H](NC(=O)OC1CC1)C(C)(C)C(F)(F)F)C(F)(F)F [Example 210, Cyclopropyl ((S)-1-(2-((2S,3S)-3-((S)-2-((cyclopropoxycarbonyl)amino)-4,4,4-trifluoro-3,3-dimethylbutanamido)-4-(4-(1-(difluoromethyl)-1H-pyrazol-4-yl)phenyl)-2-hydroxybutyl)-2-(4-(1-(difluoromethyl)-1H-pyrazol-4-yl)-2,6-difluorobenzyl)hydrazinyl)-4,4,4-trifluoro-3,3-dimethyl-1-oxobutan-2-yl)carbamate] | – | – | 15 | 0.18 | <0.18 | –
